Each structure is given as a SMILES string. A value given as a limit tells only on which side of the number the result lay.

Drawing on patent publication US20240401144A2, “PRIMER-PROBE COMPOSITION, KIT, AND DETECTION METHOD” (ASCENTAWITS PHARMACEUTICALS, LTD., priority 2021, published 2024), this text covers IC50 and IC50 values for 1 compound.

The test system of experiment [1] is C3A hepatocellular carcinoma cell line. Put plainly: Ex vivo proliferation assay, 96 h exposure. Particulars: Homo sapiens, 96 h of exposure, AKR1C3 protein High, read-out: 3424 IC50. It counts as cell-based. As for the experimental part:
(§1) Exponentially growing cells were inoculated. After 24 h, the test compound OBI-3424 was added. After addition of the test compound OBI-3424, plates were incubated in a standard tissue incubator at 37° C. for the indicated hours. At the end of the experiment, viable cells were detected using the CellTiter Glo (CTG) assay kit or AlamarBlue. Drug concentrations (IC50) resulting in 50% growth inhibition relative to untreated control were calculated using XLfit (IDBS, Boston, MA) or Prism 6 (GraphPad, San Diego, CA).
(§2) After exposing the hepatocellular carcinoma cell lines to compound OBI-3424 for 96 h and exposing the NSCLC cell lines to compound OBI-3424 for 72 h, the IC50 value was determined by ex vivo proliferation assay, and the expression of AKR1C3 protein in hepatocellular carcinoma cell lines was determined by Western blotting (tubulin was used as loading control). The expression data of AKR1C3 RNA in the hepatocellular carcinoma cell lines and in the NSCLC cell lines were from CrownBio database (https://db.crownbio.com/Crownbio/OncoExpress_Login.aspx).

Experiment [2] deals with HLE hepatocellular carcinoma cell line. The experiment in a line: Ex vivo proliferation assay, 96 h exposure. It counts as cell-based. Particulars: Homo sapiens, 96 h of exposure, AKR1C3 protein High, read-out: 3424 IC50. As for the experimental part:
as §1, §2

The subject of experiment [3] is HLF hepatocellular carcinoma cell line. The experiment in a line: Ex vivo proliferation assay, 96 h exposure. It is filed as cell-based. Particulars: Homo sapiens, 96 h of exposure, AKR1C3 protein Low, read-out: 3424 IC50. As for the experimental part:
as §1, §2

Experiment [4] deals with SK-HEP-1 hepatocellular carcinoma cell line. The experiment in a line: Ex vivo proliferation assay, 96 h exposure. Particulars: Homo sapiens, SK-HEP1; SK-HEP-1, 96 h of exposure; AKR1C3 protein Low; read-out: 3424 IC50. It counts as cell-based. As for the experimental part: as §1, §2
Experiment [5] deals with SNU-182 hepatocellular carcinoma cell line. The experiment in a line: Ex vivo proliferation assay, 96 h exposure. Particulars: Homo sapiens; SNU-182, 96 h of exposure; AKR1C3 protein Low; read-out: 3424 IC50. It counts as cell-based. As for the experimental part:
as §1, §2

Experiment [6] deals with SNU-398 hepatocellular carcinoma cell line. The experiment in a line: Ex vivo proliferation assay, 96 h exposure. It is filed as cell-based. As to conditions: Homo sapiens; SNU-398, 96 h of exposure; AKR1C3 protein Low; read-out: 3424 IC50. As for the experimental part: as §1, §2
Experiment [7] has as its system SNU-449 hepatocellular carcinoma cell line. The experiment in a line: Ex vivo proliferation assay, 96 h exposure. It counts as cell-based. As to conditions: Homo sapiens; SNU-449, 96 h of exposure; AKR1C3 protein High; read-out: 3424 IC50. On the procedure: as §1, §2
For experiment [8], the system named is SNU-475 hepatocellular carcinoma cell line. The experiment in a line: Ex vivo proliferation assay, 96 h exposure. It counts as cell-based. Particulars: Homo sapiens; SNU-475, 96 h of exposure; AKR1C3 protein High; read-out: 3424 IC50. On the procedure: as §1, §2
The test system of experiment [9] is HL-60, clone 15 cell line. Put plainly: Ex vivo cytotoxicity assay, leukemia cell lines. It is filed as cell-based. Particulars: Homo sapiens; Table 5: HL-60, clone 15, APL, 72 h; AKR1C3 expression Low. As for the experimental part:
(§3) Leukemia cell lines were suspended in RPMI medium supplemented with FBS (Biosera), while ALL PDX cells were cultured in QBSF medium (Quality Biological Inc.,) supplemented with Flt-3 ligand (20 ng/ml, BioNovus Life Sciences) or IL7 (10-20 ng/ml, Jomar Life Research). Cells were inoculated according to the optimal cell density and incubated for 3h or overnight (37° C., 5% CO2). PDX cells and leukemia cell lines were treated with OBI-3424 ([…]) or medium control for 48 or 72 h, respectively. Viability was determined using Alamar Blue reduction assay or Cell Titer-Glo Luminescent Cell Viability Assay (Promega). The half-maximal inhibitory concentration (IC50) was used to calculate the interpolation of nonlinear regression curves by GraphPad Prism 7 software.
(§4) The expression levels of AKR1C3 protein was determined by Western blot analysis. The ex vivo cytotoxicity of OBI-3424 was determined using CellTiter-Glo assay and calculated as 50% maximum inhibitory concentration (IC50).

Another experiment deals with MOLT-4 cell line. Put plainly: Ex vivo cytotoxicity assay, leukemia cell lines. It is filed as cell-based. As to conditions: Homo sapiens. As for the experimental part: as §3, §4
Another experiment concerns Reh cell line. Put plainly: Ex vivo cytotoxicity assay, leukemia cell lines. It counts as cell-based. As to conditions: Homo sapiens. As for the experimental part: as §3, §4
Experiment [10] deals with cell lines derived from T-ALL with high AKR1C3 expression. The experiment in a line: Ex vivo cytotoxicity in leukemia cell lines (summary). It is filed as cell-based, human. On the procedure:
as §3
In order to evaluate the potential anti-leukemia activity of OBI-3424, ex vivo cytotoxicity assays were performed on a variety of leukemia cell lines. […] The difference in IC50 values between cell lines with high/medium AKR1C3 expression and low expression was statistically significant (P=0.0016).

With `C[C@H](OP(=O)(N1CC1)N1CC1)c1ccc([N+](=O)[O-])c(Oc2cccc(C(=O)N(C)C)c2)c1` [OBI-3424], the IC50 – broadly, the concentration that gives 50% inhibition – in [1] was 5 nM; in experiment [2], 113 nM; in experiment [3], above 1000 nM; in experiment [4], above 1000 nM; in [5], above 1000 nM; in experiment [6], above 1000 nM. Moreover, the IC50 in [7] worked out at 45 nM; in [8], 15 nM; in experiment [9] it was 87 nM; with MOLT-4 cell line (Table 4: MOLT-4, T-ALL, AKR1C3 expression Strong, CellTiter-Glo), 10 nM; in the experiment with MOLT-4 cell line (Table 5: MOLT-4, T-ALL, 72 h, AKR1C3 expression Medium), 10 nM; with Reh cell line (Table 4: Reh, BCP-ALL, AKR1C3 expression Medium, CellTiter-Glo), 3 nM. Moreover, in the experiment with Reh cell line (Table 5: Reh, ALL (non-T, non-B), 72 h, AKR1C3 expression Low), half-maximal inhibition (IC50) was put at 3 nM. Moreover, in experiment [10], the IC50 values result is listed as “low nmol/L range”.
